Entries after “also recorded” stand apart in the source; their conditions may differ.
Tests used:
MEL-STR cells [1] = experiment: Annexin V-FITC apoptosis detection by flow cytometry (apoptotic+dead cells); type: cell-based, human; conditions: for fold more potent at inducing apoptosis in STR compared to STVP cells: 5 hour exposure (FIGS. 13, 14); for greater sensitivity / potency advantage, malignant versus non-malignant cells, induction of apoptosis: 5 hrs exposure (FIG. 3, FIG. 4)
Method: (§1) FIG. 2. […] Malignant (MEL-STR) and non-malignant (MEL-STVP) cells used in these experiments were derived originally from normal human foreskin melanocytes obtained from the Weisberg lab. These original surgical samples were genetically modified to grow continuously in vitro and are non-tumor-forming in a nude mouse model. These same cells were genetically modified further to generate the tumor-forming cell line and were propagated.
Apoptotic+dead cells were assayed in this experiment and those that follow below on a Becton-Dickenson flow cytometer using an Annexin V-FITC Apoptosis Detection Kit as described by the manufacturer.
Drug exposure time was 5 hrs. Viable and live cells were measured by FACS and by Coulter counting, respectively. […] Panels A & B: solid circles and lines, STR cells; open circles and broken lines, STVP cells; Panel B, inverse logit/log plot of the data from Panel A. Solid gray circles in Panel B (extrapolated minimum values on abscissa) were used to plot the maximum values shown in Panel A.

certain cancers = conditions: in vivo; cited from earlier work
MEL-STR cells [2] = experiment: Cell morphology (FACS light scatter, microscopic examination); type: cell-based, human
Text: Calmodulin is known to be required for traverse of late G1, G2, and specific periods during mitosis and coincides with periods of elevated […] levels.
The involvement of a form of PKC in the enzyme tetrad that is involved in Ca^2+-dependent, cell cycle phase transitions is given in FIG. 4. […] Four different means for assaying the effect of these two chemicals are shown.

MEL-STR cells [3] = experiment: Annexin V-FITC apoptosis detection by flow cytometry (apoptotic+dead cells); type: cell-based, human; conditions: 60 μm W-7, time course over 24 hrs
MEL-STVP cells = experiment: as above; type: cell-based, human
Text: as §1, with “propagated. Thus, this represents an ideal pair of highly similar cells by which drug specificity between normal and malignant cells can be assessed.” for “propagated.”
Transformed MEL-STR cells were incubated over a period of 24 hrs in the presence of a previously determined ineffective concentration (10 μm) of the CAM antagonist W-7 or the drug vehicle DMSO (1%) as controls and a concentration of 60 μm W-7 as illustrated. Apoptotic+dead cells were assayed in this experiment and those that follow below on a Becton-Dickenson flow cytometer using an Annexin V-FITC Apoptosis Detection Kit as described by the manufacturer.
Drug exposure time was 5 hrs. Viable and live cells were measured by FACS and by Coulter counting, respectively. Dose-dependent decreases in viable cells were inversely proportional to the number of Annexin+Propidium Iodide positive staining cells (data not shown) in these and the following experiments. […]

STVP cells = experiment: Cell density / growth inhibition by Coulter counting; type: cell-based, human; conditions: PP2B-AIP alone, wide concentration range, 24 hours
Method: Closed circles, solid lines, PP2B-AIP only; open circles, dashed lines, PP2B+C6C (15 uM). Cell density was quantified by Coulter counting which measures only cells with Panel A, STR cells; Panel B, STVP cells. Closed circles, solid lines, PP2B-AIP only; open circles, dashed lines, PP2B+C6C (15 uM). Cell density was quantified by Coulter counting which measures only cells with ionically intact plasma membranes (presumed live cells). Drug exposure time was 24 hours. Cell density values are expressed as a percentage of maximum for no drug or C6C only controls. Solid black lines in Panels A & B and dashed line in Panel B represent the average of all values across the PP2B-AIP concentration range. The ability of PKC agonists on apoptosis induction is potentiated by antagonists of Calmodulin-dependent protein phosphatase (a.k.a. Calcineurin or PP2B) and these effects occur at lower drug concentrations in transformed cells than in untransformed cells. […]

STR cells = conditions: PP2B-AIP alone, wide concentration range, 24 hours
Method: Panel B, cell density measured by Coulter counting; Panel C, morphological changes measured by changes in forward light scatter as measured by FACS; Panel D, percentage of spherical cells was determined on live cell populations by counting approximately 500 cells in a representative field using an inverted phase contrast microscope.
Closed circles, solid lines, PP2B-AIP only; open circles, dashed lines, PP2B+C6C (15 uM). Cell density was quantified by Coulter counting which measures only cells with Panel A, STR cells; Panel B, STVP cells. Closed circles, solid lines, PP2B-AIP only; open circles, dashed lines, PP2B+C6C (15 uM). Cell density was quantified by Coulter counting which measures only cells with ionically intact plasma membranes (presumed live cells). Drug exposure time was 24 hours. Cell density values are expressed as a percentage of maximum for no drug or C6C only controls. Solid black lines in Panels A & B and dashed line in Panel B represent the average of all values across the PP2B-AIP concentration range ionically intact plasma membranes (presumed live cells). Drug exposure time was 24 hours. Cell density values are expressed as a percentage of maximum for no drug or C6C only controls. Solid black lines in Panels A & B and dashed line in Panel B represent the average of all values across the PP2B-AIP concentration range.

[4] = PP2B-AIP alone, over the concentration range tested

For `CCCCCCCCCCCCC/C=C/[C@@H](O)[C@H](CO)NC(=O)CCCCC` [C6C, N-Hexanoyl-D-erythro-Sphingosine], the “fold more potent at inducing apoptosis in STR compared to STVP cells” value (MEL-STR cells [1]) was “ca. 6 fold”, the “potentiation of induction of apoptosis in combination with W-7” value (MEL-STR cells [1]; C6C combined with W-7, 5 hr exposure) was “potentiated” and the “greater sensitivity / potency advantage, malignant versus non-malignant cells, induction of apoptosis” value (MEL-STR cells [1]; MEL-STR vs MEL-STVP) was ~10 fold.

For `C=C1/C(=C\C=C2/CCC[C@]3(C)[C@@H]([C@H](C)CCCC(C)(C)O)CC[C@@H]23)C[C@@H](O)C[C@@H]1O` [Calcitriol], the “reduction of the incidence of certain cancers” value (certain cancers) is listed as 17-20%.

For `CCCCCCCCCCCCCC(=O)O[C@@H]1[C@@H](C)[C@@]2(O)[C@@H](C=C(CO)C[C@]3(O)C(=O)C(C)=C[C@@H]23)[C@@H]2C(C)(C)[C@]12OC(C)=O` [PMA, Phorbol-12-Myristate-13-Acetate], the “potentiation of induction of apoptosis in combination with W-7 (Annexin assay)” value (MEL-STR cells [1]; PMA combined with submaximal W-7) was “shows potentiation; also recorded: synergy” and the “potentiation of cell shape change in combination with W-7” value (MEL-STR cells [2]; PMA combined with W-7, light scatter by FACS and microscopic examination) was “Potentiation is also confirmed; also recorded: synergistic drug effects”.

In the case of `Oc1ccc(Nc2nc(-c3ccc(Cl)cc3)cs2)cc1` [SKi, 4-[[4-(4-Chlorophenyl)-1,3-thiazol-2-yl]amino]phenol], the “potentiation of induction of apoptosis in combination with W-7” value (MEL-STR cells [1]; SKi combined with W-7) is reported as “synergy”.

For `Cl.NCCCCCCNS(=O)(=O)c1cccc2c(Cl)cccc12` [W-7, N-(6-aminohexyl)-5-chloro-1-naphthalenesulfonamide hydrochloride], the “induction of apoptosis at 10 μm” value (MEL-STR cells [1]; 10 μm, previously determined) was “ineffective”, the “fold more potent at inducing apoptosis in STR compared to STVP cells” value (MEL-STR cells [1]) was “ca. 5 fold” and the “sensitivity to induction of apoptosis, malignant versus non-malignant cells” value (MEL-STR cells [1]; MEL-STR vs MEL-STVP, 5 hr. exposure, dose response (FIG. 3)) was “more than 10 times”. The “greater sensitivity / potency advantage, malignant versus non-malignant cells, induction of apoptosis” value (MEL-STR cells [1]; MEL-STR vs MEL-STVP) was 10 fold, the “time at which morphological rounding of cells can be observed” value (MEL-STR cells [2]; 60 μm W-7, microscopically or by FACS light scatter) was 1 hr and the “population scoring positively for apoptosis” value (MEL-STR cells [3]) was > 90%. The “time at which induction of apoptosis can be seen” value (MEL-STR cells [3]) was 3 h.

With “Ac-RRRRRRRRRRRGGGRMAPPRRDAMPSDA-NH2 [PP2B-AIP]” the “induction of apoptosis, drug alone” value (MEL-STR cells [1]; [4]) was “no visible induction of apoptosis”, the “maximum of cells killed” value (MEL-STR cells [1]; PP2B-AIP with C6C, 5 hr. exposure) was ≤ 50% and the “potentiation of apoptosis in combination with C6C” value (MEL-STR cells [1]; combined with C6C) was “potentiation is seen only in the transformed MEL-STR cell line”. The “induction of apoptosis, drug alone” value (MEL-STVP cells; [4]) was “no visible induction of apoptosis”, the “potentiation of apoptosis in combination with C6C” value (MEL-STVP cells; combined with C6C) was “not in untransformed MEL-STVP cells” and the “effect on growth, drug alone” value (STVP cells) was “no discernible effect”. The “effect on growth, drug alone” value (STR cells) was “no discernible effect”.

— patent US20170246241A1, “Methods for the Selective Treatment of Tumors by Calcium-Mediated Induction of Apoptosis” (priority 2003, published 2017)
